{
  "source": "patent US10849994B2",
  "about": "“Pharmaceutical composition comprising fluorine-18 labelled gases” (ASOCIACIÓN CENTRO DE INVESTIGACIÓN COOPERATIVA EN …, priority 2016, dated 2020)",
  "experiment": "PET-CT ventilation imaging after inhalation of the radioactive gas",
  "format": "in vivo, rat (Sprague-Dawley)",
  "details": "male rats",
  "protocol": "Imaging studies were conducted with [^18F]CF4.\nMale rats (n=2) weighing 350±14 g (Sprague-Dawley, Harlan, Udine, Italy) were used to perform PET studies. The animals were cared for and handled in accordance with the Guidelines for Accommodation and Care of Animals (European Convention for the Protection of Vertebrate Animals Used for Experimental and Other Scientific Purposes) and internal guidelines, and experimental procedures were approved by the Ethical Committee and local authorities.\nThe radioactive gas was administered by inhalation, by mixing the mixture [^18F]CF4/CF4/Ne obtained at the end of the production process (process A) with the oxygen carrier gas. With that aim, the system depicted in FIG. 3 was implemented.\nPET studies were performed using an eXploreVista-CT small animal PET-CT system (GE Healthcare).\nStep 1: Rats were anesthetized in an induction chamber using a mixture of 3-4% isoflurane in O2.\nStep 2: Animals were rapidly moved into the PET-CT camera, were anaesthesia was maintained with a mixture of 1.5-2.0% isofluorane in O2. During the stay into the PET-CT camera, animals were kept normothermic using a heating blanket (Homeothermic Blanket Control Unit; Bruker). Regular breathing (frequency of 50±10 breaths/minute) was maintained by adjustment of anaesthetic conditions. Respiration and body temperature of the animals were monitored throughout the scan.\nStep 3: At t=0 min, with the animal under anaesthesia, acquisition of PET images was started in list mode.\nStep 4: At t=1 minute, the syringe pump was started and the radioactive gas ([^18F]CF4, diluted with Neon and non-radioactive CF4, 74 MBq, 2 mCi) was introduced in the main stream of oxygen and consequently administered to the animal.\nStep 5: At t=2 minutes, the syringe pump was stopped, and image acquisition was continued until t=10 minutes.\nStep 6: After finalising the PET image acquisition, a whole body CT scan was performed, providing anatomical information as well as the attenuation map, for the later image reconstruction.\nImages were reconstructed (decay and CT-based attenuation corrected) with OSEM-2D. Twenty nine frames (3×20s, 10×10s, 4×20s and 12×30s) were defined to gain information about the spatiotemporal distribution of the radioactivity. PET images were analysed using PMOD image analysis software (PMOD Technologies Ltd, Zurich, Switzerland). Volumes of interest (VOIs) were manually drawn in the lungs on the CT images. VOIs were then transferred to the PET images and the concentration of radioactivity was obtained for each organ and time frame as cps/cm^3. All frames were finally summed and re-processed to get more accurate images of the distribution of radioactivity within the lungs.",
  "data": [
    {"smiles": "FC(F)(F)[18F]", "note": "[[^18F]CF4, ^18F-labelled carbon tetrafluoride]", "values": [
      {"measurement": "distribution of the radioactive gas in the lungs (summed PET-CT images, FIG. 8)", "setting": "n=2, 74 MBq in O2/isoflurane, delivered t=1-2 min, all frames summed", "result": "uniform distribution of the radioactive gas in the lungs"},
      {"measurement": "elimination of the radioactivity from the lungs after delivery of the radioactive gas is discontinued", "setting": "n=2, after the syringe pump was stopped at t=2 min", "result": "almost complete elimination of the radioactivity is achieved in a few seconds"},
      {"measurement": "time-activity curve of a VOI drawn in the whole lungs: plateau (FIG. 9)", "setting": "n=2, during gas delivery", "result": "reached immediately after the onset of contrast agent administration"},
      {"measurement": "distribution of the radioactive gas in the lungs (dynamic images)", "setting": "n=2, dynamic PET frames", "result": "immediate distribution of the radioactive gas in the lungs"}
    ]}
  ]
}
